Here are results for ten compounds from US20100093864A1, “ANTI-INFECTIVE THIOUREA COMPOUNDS” (LICA PHARMACEUTICALS, priority 2006, published 2010).

≈ marks a conversion by molar mass, not a printed value. Like-named read-outs stand apart in the source and are kept apart here. A value given as a limit tells only on which side of the number the result lay.

One data set has as its system Staphylococcus aureus. Briefly: Antibacterial screening (MIC), broth microdilution assay. It counts as cell-based. To be noted: read-out: MIC Staph. aureus. Here is the method:
An initial screening for in vitro activity was conducted in a broth microtiter assay. The synthesized compounds were assayed against several […] such as Staphylococcus aureus and 2 different strains of E. coli (including a type strain and an antibiotic-susceptible strain). Following initial screening MICs were determined.
Staphylococcus aureus ATCC29213 Staphylococcus aureus ATCC33591 (MRSA) Eschericia coli ATCC25922 Eschericia coli ESS
The screening was performed with test compounds in 4 different concentrations.
MICs for ATCC type strains fall within the limits posted by the NCCLS (M100-S11) when tested against Vancomycin, Tetracycline and Gentamycin.

The target in data set [1] is bovine serum albumin (BSA) (Bos taurus, UniProt P02769). Briefly: Protein binding bioassay: MICs in presence or absence of 40 mg/ml BSA. It counts as in vitro ADME. To be noted: MICs with or without 40 mg/ml BSA. Here is the method: Protein binding was performed using a bioassay determining MICs in the presence or absence of 40 mg/ml bovine serum albumin (BSA).
The next data set concerns erythrocyte. Briefly: Erythrocyte hemolysis assay. The class given is cell-based. The note with it: for 50% Haemolysis: concentration giving 50% haemolysis.
The subject of data set [2] is MCF7 cells (ATCC: HTB 22). Kind of data set: MTT assay on MCF7 cells. The class given is cell-based. The text has this: The cytotoxicity effect of the compounds at different exposure times as a function of concentration has been tested in an erythrocyte hemolysis assay as well as an MTT assay on MCF7 cells (ATCC: HTB 22).
Setting [3] is: Staphylococcus aureus, broth microdilution per NCCLS M7-A5, strain not given.

bovine serum albumin (BSA), sequence (P02769 25-607): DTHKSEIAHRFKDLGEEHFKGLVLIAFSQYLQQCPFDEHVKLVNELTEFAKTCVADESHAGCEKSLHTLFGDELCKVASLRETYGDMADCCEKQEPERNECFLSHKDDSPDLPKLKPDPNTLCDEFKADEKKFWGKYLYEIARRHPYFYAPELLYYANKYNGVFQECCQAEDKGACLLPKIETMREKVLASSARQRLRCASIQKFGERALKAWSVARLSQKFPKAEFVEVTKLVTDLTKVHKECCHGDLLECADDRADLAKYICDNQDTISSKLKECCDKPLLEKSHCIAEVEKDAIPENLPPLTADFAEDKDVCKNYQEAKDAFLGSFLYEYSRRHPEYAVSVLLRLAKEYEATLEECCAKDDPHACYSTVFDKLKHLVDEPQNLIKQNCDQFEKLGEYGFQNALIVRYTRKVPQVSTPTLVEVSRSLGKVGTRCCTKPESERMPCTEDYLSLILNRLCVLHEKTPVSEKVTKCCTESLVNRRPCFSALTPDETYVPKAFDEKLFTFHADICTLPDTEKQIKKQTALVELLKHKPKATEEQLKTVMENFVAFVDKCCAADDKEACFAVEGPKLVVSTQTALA

For `FC(F)(F)c1cc(NC(=S)NCc2cccc(Cl)c2)cc(C(F)(F)F)c1` [Compound A, 1-(3,5-Bis-trifluoromethyl-phenyl)-3-(3-chloro-benzyl)-thiourea], the minimum inhibitory concentration (MIC) in the data set with Staphylococcus aureus (setting [3]) was 0.6 µM (≈ 0.248 µg/mL). The fraction unbound in data set [1] is 0.02. Also, the “Haemolysis 4x MIC” value with erythrocyte (at 4x MIC) is reported as <1%. Moreover, in the data set with erythrocyte, the “50% Haemolysis” value came out at 75 µM. The compound further showed an MTT in data set [2] of 150 µM.
For the compound `FC(F)(F)c1cc(NC(=S)NCCc2cccc(Cl)c2)cc(C(F)(F)F)c1` [Compound G, 1-(3,5-Bis-trifluoromethyl-phenyl)-3-[2-(3-chloro-phenyl)-ethyl]-thiourea], the minimum inhibitory concentration (MIC) in the data set on Staphylococcus aureus (setting [3]) was found to be 0.6 µM (≈ 0.256 µg/mL). The fraction unbound in data set [1] was < 0.03. Moreover, the “Haemolysis 4x MIC” value in the data set on erythrocyte (at 4x MIC) was 0%. Moreover, the “50% Haemolysis” value with erythrocyte came to 75 µM. In data set [2], this compound yielded an MTT of 150 µM.
With `O=C(O)c1cn(C2CC2)c2cc(N3CCNCC3)c(F)cc2c1=O` [Ciprofloxicin, reference compound], the MIC in the data set with Staphylococcus aureus (broth microdilution per NCCLS M7-A5, strain not given) is given as 1.5 µM (≈ 0.497 µg/mL). Also, in the data set with erythrocyte (at 4x MIC), the “Haemolysis 4x MIC” value worked out at 0%. The “50% Haemolysis” value in the data set on erythrocyte was 150 µM. Besides, the MTT in data set [2] was >100 µM.
With `FC(F)(F)c1cc(NC(=S)NCc2ccc(Cl)cc2)cc(C(F)(F)F)c1` [Compound F, 1-(3,5-Bis-trifluoromethyl-phenyl)-3-(4-chloro-benzyl)-thiourea], the fraction unbound in data set [1] is < 0.03. Also, the “Haemolysis 4x MIC” value in the data set on erythrocyte (at 4x MIC) is on record as <1%. In addition, the “50% Haemolysis” value with erythrocyte was determined as 150 µM. The same compound had an MTT in data set [2] of 150 µM.
Take `FC(F)(F)c1cc(NC(=S)NCCOc2ccc(Cl)c(Cl)c2)cc(C(F)(F)F)c1` [Compound E, 1-(3,5-Bis-trifluoromethyl-phenyl)-3-[2-(3,4-dichloro-phenoxy)-ethyl]-thiourea]: the MIC with Staphylococcus aureus (setting [3]) stood at 0.3 µM (≈ 0.143 µg/mL). Moreover, the fraction unbound in data set [1] was 0.02. Moreover, in the data set on erythrocyte, the “50% Haemolysis” value turned out to be 18.8 µM.
Turning to `CN[C@H](CC(C)C)C(=O)N[C@H]1C(=O)N[C@@H](CC(N)=O)C(=O)N[C@H]2C(=O)N[C@H]3C(=O)N[C@H](C(=O)N[C@H](C(=O)O)c4cc(O)cc(O)c4-c4cc3ccc4O)[C@H](O)c3ccc(c(Cl)c3)Oc3cc2cc(c3O[C@@H]2O[C@H](CO)[C@@H](O)[C@H](O)[C@H]2O[C@H]2C[C@](C)(N)[C@H](O)[C@H](C)O2)Oc2ccc(cc2Cl)[C@H]1O` [Vancomycin, reference compound], the minimum inhibitory concentration (MIC) in the data set with Staphylococcus aureus (Staphylococcus aureus) is 0.3 µM (≈ 0.435 µg/mL). Further, the “Haemolysis 4x MIC” value in the data set on erythrocyte (at 4x MIC) is 0%. For the same compound, the “50% Haemolysis” value in the data set on erythrocyte was 150 µM. The MTT in data set [2] was >100 µM.
As for `CC(NC(=S)Nc1cc(C(F)(F)F)cc(C(F)(F)F)c1)c1ccc(Br)cc1` (stereo not shown) [Compound C, 1-(3,5-Bis-trifluoromethyl-phenyl)-3-[1-(4-bromo-phenyl)-ethyl]-thiourea], the MIC in the data set on Staphylococcus aureus (setting [3]) was 0.3 µM (≈ 0.141 µg/mL). This compound had a fraction unbound in data set [1] of 0.02. Moreover, the “Haemolysis 4x MIC” value in the data set on erythrocyte (at 4x MIC) was 15%. Besides, the “50% Haemolysis” value with erythrocyte is 37.5 µM.
Take `FC(F)(F)c1cc(NC(=S)NCCc2ccc(Cl)cc2Cl)cc(C(F)(F)F)c1` [Compound D, 1-(3,5-Bis-trifluoromethyl-phenyl)-3-[2-(2,4-dichloro-phenyl)-ethyl]-thiourea]: in the data set with Staphylococcus aureus (setting [3]), the minimum inhibitory concentration (MIC) turned out to be 0.3 µM (≈ 0.138 µg/mL). In data set [1], this compound showed a fraction unbound of 0.02. In data set [2], this compound registered an MTT of 150 µM.
`Cc1onc(-c2c(Cl)cccc2Cl)c1C(=O)N[C@@H]1C(=O)N2[C@@H]1SC(C)(C)[C@@H]2C(=O)O` [Dicloxacillin, reference compound]: in the data set with Staphylococcus aureus (setting [3]), the MIC was found to be 0.5 µM (≈ 0.235 µg/mL). In the data set on erythrocyte (4 x MIC), the “Haemolysis 4x MIC” value was determined as 0%. Besides, the “50% Haemolysis” value in the data set on erythrocyte was found to be 150 µM. In addition, the MTT in data set [2] was >100 µM.
`FC(F)(F)c1cc(NC(=S)NCc2ccc(Cl)cc2Cl)cc(C(F)(F)F)c1` [Compound B, 1-(3,5-Bis-trifluoromethyl-phenyl)-3-(2,4-dichloro-benzyl)-thiourea]: the unbound share (fraction unbound) in data set [1] was < 0.02. Moreover, in the data set on erythrocyte (at 4x MIC), the “Haemolysis 4x MIC” value is <1%. Also, in the data set on erythrocyte, the “50% Haemolysis” value was 150 µM. In data set [2], this compound had an MTT of 150 µM.
